*1 amine or outer side, *2 acyl side, *3 side chain or, on linkers, in order; H or OH if unused. Where a SMILES comes first, the peptide text is derived from it. Bridges are numbered along the chain shown (N, C = ends). Roman numbers before positions name the chains, in order. Side-chain parts run from the residue outwards. [ ]: non-standard residue; d: D form. The star is where a group is joined. X11 = O=C(O)CN1CCN(CC(=O)O)CCN(CC(=O)NCCCOCCOCCOCCCN*)CCN(CC(=O)O)CC1; Ala(piperidin-4-yl) = O=C([C@H](CC1CCN([*:3])CC1)N[*:1])[*:2]; DOTA = O=C(O)CN1CCN(CC(=O)O)CCN(CC(=O)*)CCN(CC(=O)O)CC1; Trp(7-OMe) = COc1cccc2c(C[C@H](N)C(=O)O)c[nH]c12; Trp(7-Me) = Cc1cccc2c(C[C@H](N)C(=O)O)c[nH]c12; 2Nal = N[C@@H](Cc1ccc2ccccc2c1)C(=O)O; mXylylene = c1cc(C[*:1])cc(C[*:2])c1; oXylylene = c1ccc(C[*:2])c(C[*:1])c1; Chg = N[C@H](C(=O)O)C1CCCCC1; NMeNle = CCCC[C@H](NC)C(=O)O; Suc = O=C(CCC(=O)[*:2])[*:1]; CH2 = C([*:1])[*:2]
Biological target: T1, DLL3 (Homo sapiens, UniProt Q9NYJ7)
T1 sequence (Q9NYJ7 27-618): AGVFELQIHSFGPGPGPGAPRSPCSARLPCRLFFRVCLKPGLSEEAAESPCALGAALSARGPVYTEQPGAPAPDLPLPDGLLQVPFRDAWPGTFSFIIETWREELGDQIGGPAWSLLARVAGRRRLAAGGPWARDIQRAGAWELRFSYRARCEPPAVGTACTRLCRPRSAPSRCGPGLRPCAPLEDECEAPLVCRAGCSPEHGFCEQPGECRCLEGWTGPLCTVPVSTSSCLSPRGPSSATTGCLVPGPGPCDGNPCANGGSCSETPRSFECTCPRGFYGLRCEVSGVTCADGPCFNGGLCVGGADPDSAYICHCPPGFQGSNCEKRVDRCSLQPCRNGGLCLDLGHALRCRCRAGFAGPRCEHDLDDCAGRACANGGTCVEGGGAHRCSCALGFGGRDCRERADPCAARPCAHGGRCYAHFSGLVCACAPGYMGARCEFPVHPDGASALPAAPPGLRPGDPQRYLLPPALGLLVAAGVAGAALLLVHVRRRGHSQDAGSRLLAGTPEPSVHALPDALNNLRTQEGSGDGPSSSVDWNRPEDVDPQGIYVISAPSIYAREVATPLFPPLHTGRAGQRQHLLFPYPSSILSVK
Assay: SPR KD, biotinylated human DLL3 on streptavidin chip (Table 8)
Parameters: biotin (biotinylated)
Conditions: SPR KD, biotinylated human DLL3 on streptavidin sensor chip, 25° C., 1:1 binding model
Excerpt: Biotinylated target ligand human DLL3 was immobilized on a streptavidin sensor chip. A reference surface was set up for nonspecific binding and refractive index changes. […] Sensorgram curves were fitted with 1:1 binding model, and affinity and kinetic parameters were obtained using Biacore Insight evaluation 4.0. software.

SMILES	Kd
CC(=O)N[C@@H](Cc1c[nH]c2ccccc12)C(=O)N[C@H](C(=O)N[C@H](C(=O)N[C@H]1CSSC[C@@H](C(=O)N[C@@H](Cc2c[nH]c3ccccc23)C(=O)N2CCC[C@H]2C(N)=O)NC(=O)[C@H](CC(=O)O)NC(=O)[C@H](CCCCNC(=O)CNC(=O)[C@H](CO)NC(=O)CNC(=O)[C@H](CO)NC(=O)CNC(=O)[C@H](CO)NC(=O)CN2CCN(CC(=O)O)CCN(CC(=O)O)CCN(CC(=O)O)CC2)NC(=O)[C@H](Cc2ccc3ccccc3c2)NC(=O)[C@H](CC(N)=O)NC(=O)[C@H](CC2CCNCC2)NC1=O)C1CCCCC1)[C@@H](C)O [compound 407, Ac-W-T-(Chg)-C(3)-[3-(4-piperidinyl)-Ala]-N-(2Nal)-Lys(G-S-G-S-G-S-DOTA)-D-C(3)-W-P-CONH2] (I: Ac-WT[Chg]C[Ala(piperidin-4-yl)]N[2Nal]KDCWP-NH2 / II: {DOTA}-SGSGSG; disulfide I:4-I:10; amide I:8-II:C)	< 1 nM

Same assay, conditions: biotinylated human DLL3 on streptavidin sensor chip, 25° C., 1:1 binding model; read-out: SPR KD

Kd	SMILES
< 1 nM	CC(=O)N[C@@H](Cc1c[nH]c2ccccc12)C(=O)N[C@H](C(=O)N[C@H](C(=O)N[C@H]1CSCSC[C@@H](C(=O)N[C@@H](Cc2c[nH]c3ccccc23)C(=O)N2CCC[C@H]2C(N)=O)NC(=O)[C@H](CC(=O)O)NC(=O)[C@H](CCCCNC(=O)CN2CCN(CC(=O)O)CCN(CC(=O)O)CCN(CC(=O)O)CC2)NC(=O)[C@H](Cc2ccc3ccccc3c2)NC(=O)[C@H](CC(N)=O)NC(=O)[C@H](CC2CCNCC2)NC1=O)C1CCCCC1)[C@@H](C)O [compound 398, Ac-W-T-(Chg)-C(1)-[3-(4-piperidinyl)-Ala]-N-(2Nal)-Lys(DOTA)-D-C(1)-W-P-CONH2] (Ac-WT[Chg]C[Ala(piperidin-4-yl)]N[2Nal]K(DOTA)DCWP-NH2; linker 4-10 via CH2)
< 1 nM	CC(=O)N[C@@H](Cc1c[nH]c2ccccc12)C(=O)N[C@H](C(=O)N[C@H](C(=O)N[C@H]1CSCSC[C@@H](C(=O)N[C@@H](Cc2c[nH]c3ccccc23)C(=O)N2CCC[C@H]2C(N)=O)NC(=O)[C@H]([C@@H](C)O)NC(=O)[C@H](CCCCNC(=O)CN2CCN(CC(=O)O)CCN(CC(=O)O)CCN(CC(=O)O)CC2)NC(=O)[C@H](Cc2ccc3ccccc3c2)NC(=O)[C@H](CC(N)=O)NC(=O)[C@H](CC2CCNCC2)NC1=O)C1CCCCC1)[C@@H](C)O [compound 399, Ac-W-T-(Chg)-C(1)-[3-(4-piperidinyl)-Ala]-N-(2Nal)-Lys(DOTA)-(Thr)-C(1)-W-P-CONH2] (Ac-WT[Chg]C[Ala(piperidin-4-yl)]N[2Nal]K(DOTA)TCWP-NH2; linker 4-10 via CH2)
< 1 nM	CCCC[C@@H](C(=O)N[C@H]1CSCSC[C@@H](C(=O)N[C@@H](Cc2c[nH]c3ccccc23)C(=O)N2CCC[C@H]2C(N)=O)NC(=O)[C@H](CC(=O)O)NC(=O)[C@H](CCCCNC(=O)CN2CCN(CC(=O)O)CCN(CC(=O)O)CCN(CC(=O)O)CC2)NC(=O)[C@H](Cc2ccc3ccccc3c2)NC(=O)[C@H](CC(N)=O)NC(=O)[C@H](CC2CCNCC2)NC1=O)N(C)C(=O)[C@@H](NC(=O)[C@H](Cc1c[nH]c2ccccc12)NC(C)=O)[C@@H](C)O [compound 400, Ac-W-T-(NMe-Nle)-C(1)-[3-(4-piperidinyl)-Ala]-N-(2Nal)-Lys(DOTA)-D-C(1)-W-P-CONH2] (Ac-WT[NMeNle]C[Ala(piperidin-4-yl)]N[2Nal]K(DOTA)DCWP-NH2; linker 4-10 via CH2)
1 to 10 nM	CC(=O)N[C@@H](Cc1c[nH]c2ccccc12)C(=O)N[C@H](C(=O)N[C@H](C(=O)N[C@H]1CSCc2ccccc2CSC[C@@H](C(=O)N[C@@H](Cc2c[nH]c3ccccc23)C(=O)N2CCC[C@H]2C(N)=O)NC(=O)[C@H](CC(=O)O)NC(=O)[C@H](CCCCNC(=O)CN2CCN(CC(=O)O)CCN(CC(=O)O)CCN(CC(=O)O)CC2)NC(=O)[C@H](Cc2ccc3ccccc3c2)NC(=O)[C@H](CC(N)=O)NC(=O)[C@H](CC2CCNCC2)NC1=O)C1CCCCC1)[C@@H](C)O [compound 401, Ac-W-T-(Chg)-C(oDBX)-[3-(4-piperidinyl)-Ala]-N-(2Nal)-Lys(DOTA)-D-C(3)-W-P-CONH2] (Ac-WT[Chg]C[Ala(piperidin-4-yl)]N[2Nal]K(DOTA)DCWP-NH2; linker 4-10 via oXylylene)
100 to 300 nM	CC(=O)N[C@@H](Cc1c[nH]c2ccccc12)C(=O)N[C@H](C(=O)N[C@H](C(=O)N[C@H]1CSCc2cccc(c2)CSC[C@@H](C(=O)N[C@@H](Cc2c[nH]c3ccccc23)C(=O)N2CCC[C@H]2C(N)=O)NC(=O)[C@H](CC(=O)O)NC(=O)[C@H](CCCCNC(=O)CN2CCN(CC(=O)O)CCN(CC(=O)O)CCN(CC(=O)O)CC2)NC(=O)[C@H](Cc2ccc3ccccc3c2)NC(=O)[C@H](CC(N)=O)NC(=O)[C@H](CC2CCNCC2)NC1=O)C1CCCCC1)[C@@H](C)O [compound 402, Ac-W-T-(Chg)-C(mDBX)-[3-(4-piperidinyl)-Ala]-N-(2Nal)-Lys(DOTA)-D-C(3)-W-P-CONH2] (Ac-WT[Chg]C[Ala(piperidin-4-yl)]N[2Nal]K(DOTA)DCWP-NH2; linker 4-10 via mXylylene)
< 1 nM	CC(=O)N[C@@H](Cc1c[nH]c2c(C)cccc12)C(=O)N[C@H](C(=O)N[C@H](C(=O)N[C@H]1CSSC[C@@H](C(=O)N[C@@H](Cc2c[nH]c3ccccc23)C(=O)N2CCC[C@H]2C(N)=O)NC(=O)[C@H](CC(=O)O)NC(=O)[C@H](CCCCNC(=O)CN2CCN(CC(=O)O)CCN(CC(=O)O)CCN(CC(=O)O)CC2)NC(=O)[C@H](Cc2ccc3ccccc3c2)NC(=O)[C@H](CC(N)=O)NC(=O)[C@H](CC2CCNCC2)NC1=O)C1CCCCC1)[C@@H](C)O [compound 404, Ac-(7Me-Trp)-T-(Chg)-C(3)-[3-(4-piperidinyl)-Ala]-N-(2Nal)-Lys(DOTA)-D-C(3)-W-P-CONH2] (Ac-[Trp(7-Me)]T[Chg]C[Ala(piperidin-4-yl)]N[2Nal]K(DOTA)DCWP-NH2; disulfide 4-10)
< 1 nM	COc1cccc2c(C[C@H](NC(C)=O)C(=O)N[C@H](C(=O)N[C@H](C(=O)N[C@H]3CSSC[C@@H](C(=O)N[C@@H](Cc4c[nH]c5ccccc45)C(=O)N4CCC[C@H]4C(N)=O)NC(=O)[C@H](CC(=O)O)NC(=O)[C@H](CCCCNC(=O)CN4CCN(CC(=O)O)CCN(CC(=O)O)CCN(CC(=O)O)CC4)NC(=O)[C@H](Cc4ccc5ccccc5c4)NC(=O)[C@H](CC(N)=O)NC(=O)[C@H](CC4CCNCC4)NC3=O)C3CCCCC3)[C@@H](C)O)c[nH]c12 [compound 405, Ac-(7MeO-Trp)-T-(Chg)-C(3)-[3-(4-piperidinyl)-Ala]-N-(2Nal)-Lys(DOTA)-D-C(3)-W-P-CONH2] (Ac-[Trp(7-OMe)]T[Chg]C[Ala(piperidin-4-yl)]N[2Nal]K(DOTA)DCWP-NH2; disulfide 4-10)
< 1 nM	CC(=O)N[C@@H](Cc1c[nH]c2ccccc12)C(=O)N[C@H](C(=O)N[C@H](C(=O)N[C@H]1CSSC[C@@H](C(=O)N[C@@H](Cc2c[nH]c3ccccc23)C(=O)N2CCC[C@H]2C(N)=O)NC(=O)[C@H](CC(=O)O)NC(=O)[C@H](CCCCNC(=O)CNC(=O)CNC(=O)CCC(=O)NCCCOCCOCCOCCCNC(=O)CN2CCN(CC(=O)O)CCN(CC(=O)O)CCN(CC(=O)O)CC2)NC(=O)[C@H](Cc2ccc3ccccc3c2)NC(=O)[C@H](CC(N)=O)NC(=O)[C@H](CC2CCNCC2)NC1=O)C1CCCCC1)[C@@H](C)O [compound 406, Ac-W-T-(Chg)-C(3)-[3-(4-piperidinyl)-Ala]-N-(2Nal)-Lys(G-G-TTDS-DOTA)-D-C(3)-W-P-CONH2] (Ac-WT[Chg]C[Ala(piperidin-4-yl)]N[2Nal]K([Gly-Gly-Suc-X11])DCWP-NH2; disulfide 4-10)
< 1 nM	CCCC[C@@H](C(=O)N[C@H]1CSSC[C@@H](C(=O)N[C@@H](Cc2c[nH]c3ccccc23)C(=O)N2CCC[C@H]2C(N)=O)NC(=O)[C@H](CC(=O)O)NC(=O)[C@H](CCCCNC(=O)CN2CCN(CC(=O)O)CCN(CC(=O)O)CCN(CC(=O)O)CC2)NC(=O)[C@H](Cc2ccc3ccccc3c2)NC(=O)[C@H](CC(N)=O)NC(=O)[C@H](CC2CCNCC2)NC1=O)N(C)C(=O)[C@@H](NC(=O)[C@H](Cc1c[nH]c2c(C)cccc12)NC(C)=O)[C@@H](C)O [compound 408, Ac-(7Me-Trp)-T-(NMe-Nle)-C(3)-[3-(4-piperidinyl)-Ala]-N-(2Nal)-Lys(DOTA)-D-C(3)-W-P-CONH2] (Ac-[Trp(7-Me)]T[NMeNle]C[Ala(piperidin-4-yl)]N[2Nal]K(DOTA)DCWP-NH2; disulfide 4-10)
< 1 nM	CC(=O)N[C@@H](Cc1c[nH]c2ccccc12)C(=O)N[C@H](C(=O)N[C@H](C(=O)N[C@H]1CSCSC[C@@H](C(=O)N[C@@H](Cc2c[nH]c3ccccc23)C(=O)N2CCC[C@H]2C(N)=O)NC(=O)[C@H](C)NC(=O)[C@H](CCCCNC(=O)CN2CCN(CC(=O)O)CCN(CC(=O)O)CCN(CC(=O)O)CC2)NC(=O)[C@H](Cc2ccc3ccccc3c2)NC(=O)[C@H](CC(N)=O)NC(=O)[C@H](CC2CCNCC2)NC1=O)C1CCCCC1)[C@@H](C)O [compound 416, Ac-W-T-(Chg)-C(1)-[3-(4-piperidinyl)-Ala]-N-(2Nal)-Lys(DOTA)-(Ala)-C(1)-W-P-CONH2] (Ac-WT[Chg]C[Ala(piperidin-4-yl)]N[2Nal]K(DOTA)ACWP-NH2; linker 4-10 via CH2)

— patent US20250049970A1, “DLL3 TARGETING PEPTIDES AND CONSTRUCTS THEREOF” (MARIANA ONCOLOGY INC., priority 2023, published 2025)
